The record followed here is patent US8871754B2, “Compounds and compositions for the treatment of parasitic diseases” (IRM LLC, priority 2012, dated 2014).

For this assay, the system named is P. falciparum (NF54 or 3D7 strain) in infected human erythrocytes. In words: Assay for P. falciparum proliferation in infected human blood cells (SYBR Green). Type of assay: cell-based. The following applies: Plasmodium falciparum, Erythrocyte; NF54 or 3D7 strain, 72 hours, SYBR Green fluorescence; read-out: EC50 (nM), inhibitory efficacy in delaying P. falciparum proliferation in infected human blood cells. As to the method: Assay for P. falciparum Proliferation in Infected Human Blood Cells
Compounds of the invention can be assayed to measure their capacity to inhibit proliferation of P. falciparum parasitemia in infected red blood cells. This parasite proliferation assay measures the increase in parasite DNA content using a DNA intercalating dye, SYBR Green® (INVITROGEN®) which has a high affinity for double stranded DNA.
NF54 or 3D7 P. falciparum strain is grown in complete culturing media until parasitemia reaches 3% to 8% with O+ human erythrocytes. […] 20 μl of screening media is dispensed into 384 well assay plates. 50 nl of compounds of the invention (in DMSO), including antimalarial controls (mefloquine, pyrimethamine and artemisinin), are then transferred into the assay plates, as well as DMSO alone to serve as a negative control for inhibition. Then 30 μl of a suspension of a NF54 or 3D7 P. falciparum infected erythrocytes in screening media is dispensed into the assay plates such that the final hematocrit is 2.5% with a final parasitemia of 0.3%. The plates are placed in a 37° C. incubator for 72 hours in a low oxygen environment containing 93% N2, 4% CO2, and 3% O2 gas mixture. 10 μl of lysis buffer (saponin, triton-X, EDTA) containing a 10× solution of SYBR Green I® in RPMI media is dispensed into the plates. The plates are lidded and kept at room temperature overnight for the lysis of the infected red blood cells. The fluorescence intensity is measured (excitation […], emission 530 nm) using the Envision™ system (Perkin Elmer). The percentage inhibition of 50%, […], is calculated for each compound.
For the compound `CN(C(=O)c1ccn2ncc(-c3ccc(NC(=O)[C@@H](N)C4CCCCC4)cc3)c2c1)c1ccc(C#N)cc1` [Example 46, (S)-3-(4-(2-amino-2-cyclohexylacetamido)phenyl)-N-(4-cyanophenyl)-N-methylpyrazolo[1,5-a]pyridine-5-carboxamide], the EC50 is 18 nM.
For `CN(C(=O)c1ccn2ncc(-c3ccc4c(cnn4C)c3)c2c1)c1ccc(C#N)cc1` [Example 17, N-(4-cyanophenyl)-N-methyl-3-(1-methyl-1H-indazol-5-yl)pyrazolo[1,5-a]pyridine-5-carboxamide], the EC50 is 3 nM.
Take `Cc1cc(-c2cnn3ccc(C(=O)N(C)c4ccc(C#N)cc4)cc23)cnc1N` [Example 81, 3-(6-amino-5-methylpyridin-3-yl)-N-(4-cyanophenyl)-N-methylpyrazolo[1,5-a]pyridine-5-carboxamide]: the EC50 was determined as 36 nM.
The result for `Fc1ccc(CNc2ccn3ncc(-c4ccc(C(F)(F)F)cc4)c3c2)cc1` [Example 35, N-(4-fluorobenzyl)-3-(4-(trifluoromethyl)phenyl)pyrazolo[1,5-a]pyridine-5-amine] reads 2040 nM; that for `C[C@H](N)C(=O)Nc1ccc(-c2cnn3ccc(C(=O)N(C)c4ccc(C#N)cc4)cc23)cc1` [Example 26, (S)-3-(4-(2-aminopropanamido)phenyl)-N-(4-cyanophenyl)-N-methylpyrazolo[1,5-a]pyridine-5-carboxamide], 22 nM; that for `Cc1ccc(OCc2ccn3ncc(-c4ccc(C(F)(F)F)cc4)c3c2)nc1` [Example 15, 5-(((5-methylpyridin-2-yl)oxy)methyl)-3-(4-(trifluoromethyl)phenyl)pyrazolo[1,5-a]pyridine], 2320 nM.
The result for `CN(C(=O)c1ccc(F)cc1)c1ccn2ncc(-c3ccc(C(F)(F)F)cc3)c2c1` [Example 29, 4-fluoro-N-methyl-N-(3-(4-(trifluoromethyl)phenyl)pyrazolo[1,5-a]pyridine-5-yl)benzamide] reads 150 nM; that for `Cc1ccc(N(C)C(=O)c2ccn3ncc(-c4ccc(C(N)=O)cc4)c3c2)nc1` [Example 63, 3-(4-carbamoylphenyl)-N-methyl-N-(5-methylpyridin-2-yl)pyrazolo[1,5-a]pyridine-5-carboxamide], 6 nM.
Regarding `C[C@@H](N)C(=O)Nc1ccc(-c2cnn3ccc(C(=O)N(C)c4ccc(C#N)cc4)cc23)cc1` [Example 44, (R)-3-(4-(2-aminopropanamido)phenyl)-N-(4-cyanophenyl)-N-methylpyrazolo[1,5-a]pyridine-5-carboxamide], the EC50 is 1 nM.
As for `CN(C(=O)c1ccc(F)cc1)c1ccn2ncc(-c3ccc(C(N)=O)cc3)c2c1` [Example 56, N-(3-(4-carbamoylphenyl)pyrazolo[1,5-a]pyridin-5-yl)-4-fluoro-N-methylbenzamide], the EC50 is 8 nM.
In the case of `N#Cc1ccc(N(CC2CCOCC2)C(=O)c2ccn3ncc(-c4ccc(C(F)(F)F)cc4)c3c2)cc1` [Example 11, N-(4-cyanophenyl)-N-((tetrahydro-2H-pyran-4-yl)methyl)-3-(4-(trifluoromethyl)phenyl)pyrazolo[1,5-a]pyridine-5-carboxamide], the EC50 turned out to be 6 nM.
Take `CC(=O)Nc1ccc(-c2cnn3ccc(C(=O)N(C)c4ccc(C#N)cc4)cc23)cn1` [Example 18, 3-(6-acetamidopyridin-3-yl)-N-(4-cyanophenyl)-N-methylpyrazolo[1,5-a]pyridine-5-carboxamide]: the EC50 is 3 nM.
The result for `CN(c1ccn2ncc(-c3ccc(C(F)(F)F)cc3)c2c1)S(=O)(=O)c1ccc(F)cc1` [Example 31, 4-fluoro-N-methyl-N-(3-(4-(trifluoromethyl)phenyl)pyrazolo[1,5-a]pyridine-5-yl)benzenesulfonamide] reads 143 nM.
Take `CNC(=O)c1ccc(-c2cnn3ccc(C(=O)N4CCOc5cc(F)ccc54)cc23)cc1` [Example 73, 4-(5-(7-fluoro-3,4-dihydro-2H-benzo[b][1,4]oxazine-4-carbonyl)pyrazolo[1,5-a]pyridin-3-yl)-N-methylbenzamide]: the EC50 was > 10000 nM.
In the case of `CN(Cc1ccn2ncc(-c3ccc(C(F)(F)F)cc3)c2c1)c1ccc(Cl)cc1` [Example 6, 4-chloro-N-methyl-N-((3-(4-(trifluoromethyl)phenyl)pyrazolo[1,5-a]pyridine-5-yl)methyl)aniline], the EC50 came to 284 nM.
Regarding `CN(C(=O)c1ccc(C(F)(F)F)cn1)c1ccn2ncc(-c3ccc(C(F)(F)F)cc3)c2c1` [Example 38, N-methyl-5-(trifluoromethyl)-N-(3-(4-(trifluoromethyl)phenyl)pyrazolo[1,5-a]pyridine-5-yl)picolinamide], the EC50 was 179 nM.
For `Cc1ccc(N(C)C(=O)c2ccn3ncc(-c4ccc(C(F)(F)F)cc4)c3c2)nc1` [Example 5, N-methyl-N-(5-methylpyridin-2-yl)-3-(4-(trifluoromethyl)phenyl)pyrazolo[1,5-a]pyridine-5-carboxamide], the EC50 came to 88 nM.
Take `CN(C(=O)Nc1ccc(F)cc1)c1ccn2ncc(-c3ccc(C(F)(F)F)cc3)c2c1` [Example 47, 3-(4-fluorophenyl)-1-methyl-1-(3-(4-(trifluoromethyl)phenyl)pyrazolo[1,5-a]pyridin-5-yl)urea]: the EC50 was > 9000 nM.
With `CN(C(=O)c1ccc(C2CC2)cc1)c1ccn2ncc(-c3ccc(C(F)(F)F)cc3)c2c1` [Example 50, 4-cyclopropyl-N-methyl-N-(3-(4-(trifluoromethyl)phenyl)pyrazolo[1,5-a]pyridin-5-yl)benzamide], the EC50 came out at 3850 nM.
Take `CN(C)CCN(C(=O)c1ccn2ncc(-c3ccc(C(F)(F)F)cc3)c2c1)c1ccc(C#N)cc1` [Example 10, N-(4-cyanophenyl)-N-(2-(dimethylamino)ethyl)-3-(4-(trifluoromethyl)phenyl)pyrazolo[1,5-a]pyridine-5-carboxamide]: the EC50 came to 7 nM.
As to `CN(C(=O)c1ccn2ncc(-c3ccc(C(N)=O)cc3)c2c1)C1CCC(C#N)CC1` (stereo not shown) [Example 82, 3-(4-carbamoylphenyl)-N-(4-cyanocyclohexyl)-N-methylpyrazolo[1,5-a]pyridine-5-carboxamide], the EC50 turned out to be 1160 nM.
Under `CN(C(=O)c1ccn2ncc(-c3ccc(C(F)(F)F)cn3)c2c1)c1ccc(C#N)cc1` [Example 24, N-(4-cyanophenyl)-N-methyl-3-(5-(trifluoromethyl)109yridine-2-yl)pyrazolo[1,5-a]pyridine-5-carboxamide] stands 10 nM.
On to `CNC(=O)c1ccc(-c2cnn3ccc(C(=O)N(c4ccc(C#N)cn4)C4COC4)cc23)cc1` [Example 76, N-(5-cyanopyridin-2-yl)-3-(4-(methylcarbamoyl)phenyl)-N-(oxetan-3-yl)pyrazolo[1,5-a]pyridine-5-carboxamide], for which the EC50 turned out to be 82 nM.
Consider `CC(=O)Nc1ccc(-c2cnn3ccc(C(=O)N(C)c4ccc(C#N)cn4)cc23)cc1` [Example 69, 3-(4-acetamidophenyl)-N-(5-cyanopyridin-2-yl)-N-methylpyrazolo[1,5-a]pyridine-5-carboxamide], for which the EC50 was determined as 13 nM.
The result for `Cc1ccc(N(C)C(C)c2ccn3ncc(-c4ccc(C(N)=O)cc4)c3c2)nc1` (stereo not shown) [Example 65, 4-(5-(1-(methyl(5-methylpyridin-2-yl)amino)ethyl)pyrazolo[1,5-a]pyridin-3-yl)benzamide] reads 504 nM.
For `CN(C(=O)c1ccc(S(C)(=O)=O)cc1)c1ccn2ncc(-c3ccc(C(F)(F)F)cc3)c2c1` [Example 52, N-methyl-4-(methylsulfonyl)-N-(3-(4-(trifluoromethyl)phenyl)pyrazolo[1,5-a]pyridin-5-yl)benzamide], the EC50 was determined as 13 nM.
Take `COc1ccc(-c2cnn3ccc(C(=O)N(C)c4ccc(C#N)cn4)cc23)nc1` [Example 60, N-(5-cyanopyridin-2-yl)-3-(5-methoxypyridin-2-yl)-N-methylpyrazolo[1,5-a]pyridine-5-carboxamide]: the EC50 amounted to 683 nM.
As for `CN(C(=O)c1ccn2ncc(-c3ccc(C(F)(F)F)cc3)c2c1)c1ccc(C(F)(F)F)cn1` [Example 33, N-methyl-3-(4-(trifluoromethyl)phenyl)-N-(5-(trifluoromethyl)pyridine-2-yl)pyrazolo[1,5-a]pyridine-5-carboxamide], the EC50 was 59 nM.
Turning to `CNC(=O)c1ccc(-c2cnn3ccc(C(=O)N4c5ccc(F)cc5OCC4C)cc23)cc1` (stereo not shown) [Example 74, 4-(5-(7-fluoro-3-methyl-3,4-dihydro-2H-benzo[b][1,4]oxazine-4-carbonyl)pyrazolo[1,5-a]pyridin-3-yl)-N-methylbenzamide], the EC50 came out at 52 nM.
Under `CN(C(=O)c1ccn2ncc(-c3cnc(N)c(Cl)c3)c2c1)c1ccc(C#N)cn1` [Example 86, 3-(6-amino-5-chloropyridin-3-yl)-N-(5-cyanopyridin-2-yl)-N-methylpyrazolo[1,5-a]pyridine-5-carboxamide] stands 10 nM; under `CN(C(=O)c1ccc(C2CC2)nc1)c1ccn2ncc(-c3ccc(C(F)(F)F)cc3)c2c1` [Example 49, 6-cyclopropyl-N-methyl-N-(3-(4-(trifluoromethyl)phenyl)pyrazolo[1,5-a]pyridin-5-yl)nicotinamide], 2290 nM.
